Laboratory results: US8592594B2, “Tetrahydro-quinoline derivatives” (Hoffmann-La Roche Inc., priority 2010, dated 2013)
pEC50: −log10 of the molar value.

System: recombinant AMPK proteins (α1β1γ1, α2β1γ1, α1(1-335), α1(1-394) or α2(1-394))
Experiment: Scintillation Proximity Assay (SPA), AMPK activation
Type: biochemical, human
Settings: effective concentration of activator for 50% of maximal enzyme activity; 50 nM AMPK, 2 μM ATP, 2 μM biotin-SAMS, 30° C., 2 hours
Procedure: Recombinant human AMPK α1β1γ1, α2β1γ1 or AMPK α subunit truncations α1(1-335), α1(1-394) and α2(1-394) were constructed, expressed and purified as described previously (Pang, T., Zhang, Z. S., Gu, M., Qiu, B. Y., Yu, L. F., Cao, P. R., Shao, W., Su, M. B., Li, J. Y., Nan, F. J., and Li, J. (2008). Rat liver AMPK heterotrimer enzyme was obtained from Upstate (Billerica, Mass., U.S.A.).
Scintillation Proximity Assay
Before the Scintillation Proximity Assay (SPA) assay, 200 nM recombinant AMPK proteins (α1β1γ1, α2β1γ1, α1(1-335), α1(1-394) or α2(1-394)) were fully phosphorylated as described previously (Pang et al., 2008). SPA reactions were performed in 96-well plates at a final volume of 50 μL containing 20 mM Tris-HCl pH 7.5, 5 mM MgCl2, 1 mM DTT, 2 μM biotin-SAMS, 2 μM ATP, 0.2 μCi/well [γ-^33P]ATP, and various amount of activator. Reactions were initiated by the addition of 50 nM recombinant AMPK proteins to the reaction solutions and incubated at 30° C. for 2 hours. After that, reactions were terminated by the addition of 40 μL stop solution containing 80 μg streptavidin-coated SPA beads per well, 50 mM ED TA, 0.1% Triton X-100 in PBS, pH 7.5 and incubated for 1 hour. Finally, a 160 μL suspension solution containing 2.4 M CsCl, 50 mM EDTA, and 0.1% Triton X-100 in PBS (pH 7.5) was added to the reaction solution to suspend SPA beads completely. SPA signals were determined with a Wallac MicroBeta plate counter (PerkinElmer) 30 min later for calculation of the amount of product formed. The amount of products formed in 2 hour was plotted against activator concentrations to determine the effective concentration of the activator (EC50) required for 50% of maximal enzyme activity.

Structure (SMILES) | pEC50
O=C(NC1CCC1)c1ccc2c(c1)C1(CC1)CC(c1cc(Br)ccc1F)N2 (stereo not drawn) [Example 36, 2-(5-Bromo-2-fluoro-phenyl)-spiro(cyclopropane-1,4′-1′,2′,3′,4′-tetrahydroquinoline)-6-carboxylic acid cyclobutylamide] | 5.25
O=C(NC1CC1)c1ccc2c(c1)C1(CC1)CC(c1cc(Cl)ccc1Cl)N2 (stereo not drawn) [Example 37, 2-(2,5-Dichloro-phenyl)-spiro(cyclopropane-1,4′-1′,2′,3′,4′-tetrahydroquinoline)-6-carboxylic acid cyclopropylamide] | 4.86
CNC(=O)c1ccc2c(c1)C1(CC1)CC(c1cc(Cl)ccc1Cl)N2 (stereo not drawn) [Example 38, 2-(2,5-Dichloro-phenyl)-spiro(cyclopropane-1,4′-1′,2′,3′,4′-tetrahydroquinoline)-6-carboxylic acid methylamide] | 5.62
O=C(NC1CCC1)c1ccc2c(c1)C1(CC1)CC(c1cc(Cl)ccc1Cl)N2 (stereo not drawn) [Example 39, 2-(2,5-Dichloro-phenyl)-spiro(cyclopropane-1,4′-1′,2′,3′,4′-tetrahydroquinoline)-6-carboxylic acid cyclobutylamide] | 5.31
O=C(c1ccc2c(c1)C1(CC1)CC(c1cc(Cl)ccc1Cl)N2)N1CCOCC1 (stereo not drawn) [Example 40, [2-(2,5-Dichloro-phenyl)-spiro(cyclopropane-1,4′-1′,2′,3′,4′-tetrahydroquinolin)-6-yl]-morpholin-4-yl-methanone] | 5.43
CC(C)NC(=O)c1ccc2c(c1)C1(CC1)CC(c1cc(Cl)ccc1Cl)N2 (stereo not drawn) [Example 41, 2-(2,5-Dichloro-phenyl)-spiro(cyclopropane-1,4′-1′,2′,3′,4′-tetrahydroquinoline)-6-carboxylic acid isopropylamide] | 5.29
CS(=O)(=O)N1CCN(C(=O)c2ccc3c(c2)C2(CC2)CC(c2cc(Cl)ccc2Cl)N3)CC1 (stereo not drawn) [Example 42, [2-(2,5-Dichloro-phenyl)-spiro(cyclopropane-1,4′-1′,2′,3′,4′-tetrahydroquinolin)-6-yl]-(4-methanesulfonyl-piperazin-1-yl)-methanone] | 5.42
O=C(NC1CCC1)c1ccc2c(c1)C1(CC1)CC(c1cc(Cl)cc(Cl)c1)N2 (stereo not drawn) [Example 43, 2-(3,5-Dichloro-phenyl)-spiro(cyclopropane-1,4′-1′,2′,3′,4′-tetrahydroquinoline)-6-carboxylic acid cyclobutylamide] | 5.23
O=C(c1ccc2c(c1)C1(CC1)CC(c1cc(Cl)ccc1F)N2)N1CCOCC1 (stereo not drawn) [Example 44, [2-(5-Chloro-2-fluoro-phenyl)-spiro(cyclopropane-1,4′-1′,2′,3′,4′-tetrahydroquinolin)-6-yl]-morpholin-4-yl-methanone] | 5.52
CN(C)C(=O)c1ccc2c(c1)C1(CC1)CC(c1cc(Cl)ccc1F)N2 (stereo not drawn) [Example 45, 2-(5-Chloro-2-fluoro-phenyl)-spiro(cyclopropane-1,4′-1′,2′,3′,4′-tetrahydroquinoline)-6-carboxylic acid dimethylamide] | 5.75
O=C(NC1CCC1)c1ccc2c(c1)C1(CC1)CC(c1cc(Cl)ccc1F)N2 (stereo not drawn) [Example 46, 2-(5-Chloro-2-fluoro-phenyl)-spiro(cyclopropane-1,4′-1′,2′,3′,4′-tetrahydroquinoline)-6-carboxylic acid cyclobutylamide] | 5.12
CC(C)NC(=O)c1ccc2c(c1)C1(CC1)CC(c1cc(Cl)ccc1F)N2 (stereo not drawn) [Example 47, 2-(5-Chloro-2-fluoro-phenyl)-spiro(cyclopropane-1,4′-1′,2′,3′,4′-tetrahydroquinoline)-6-carboxylic acid isopropylamide] | 4.94
O=C(c1ccc2c(c1)C1(CC1)CC(c1cc(F)ccc1Br)N2)N1CCNCC1 (stereo not drawn) [Example 48] | 5.68
CNC(=O)c1ccc2c(c1)C1(CC1)CC(c1c(C)cc(F)cc1Br)N2 (stereo not drawn) [Example 49, 2-(2-Bromo-4-fluoro-6-methyl-phenyl)-spiro(cyclopropane-1,4′-1′,2′,3′,4′-tetrahydroquinoline)-6-carboxylic acid methylamide] | 5.49
CN(C)C(=O)c1ccc2c(c1)C(C)(C)CC(C(C)(C)c1ccccc1)N2 (stereo not drawn) [Example 50, 4,4-Dimethyl-2-(1-methyl-1-phenyl-ethyl)-1,2,3,4-tetrahydro-quinoline-6-carboxylic acid dimethylamide] | 5.54
CN(C)C(=O)c1ccc2c(c1)C1(CCCC1)CC(c1cc(F)ccc1Br)N2 (stereo not drawn) [Example 51, 2-(2-Bromo-5-fluoro-phenyl)-spiro(cyclopentane-1,4′-1′,2′,3′,4′-tetrahydroquinoline)-6-carboxylic acid dimethylamide] | 5.45
O=C(NC1CC1)c1ccc2c(c1)C1(CCCC1)CC(c1cc(F)ccc1Br)N2 (stereo not drawn) [Example 52, 2-(2-Bromo-5-fluoro-phenyl)-spiro(cyclopentane-1,4′-1′,2′,3′,4′-tetrahydroquinoline)-6-carboxylic acid cyclopropylamide] | 5.32
CN1CCC(NC(=O)c2ccc3c(c2)C2(CCCC2)CC(c2cc(F)ccc2Br)N3)CC1 (stereo not drawn) [Example 53, 2-(2-Bromo-5-fluoro-phenyl)-spiro(cyclopentane-1,4′-1′,2′,3′,4′-tetrahydroquinoline)-6-carboxylic acid (1-methyl-piperidin-4-yl)-amide] | 5.86
O=C(NC1CCC1)c1ccc2c(c1)C1(CCCC1)CC(c1cc(F)ccc1Br)N2 (stereo not drawn) [Example 54, 2-(2-Bromo-5-fluoro-phenyl)-spiro(cyclopentane-1,4′-1′,2′,3′,4′-tetrahydroquinoline)-6-carboxylic acid cyclobutylamide] | 5.58
CNC(=O)c1ccc2c(c1)C1(CCCC1)CC(c1cc(F)ccc1Br)N2 (stereo not drawn) [Example 55, 2-(2-Bromo-5-fluoro-phenyl)-spiro(cyclopentane-1,4′-1′,2′,3′,4′-tetrahydroquinoline)-6-carboxylic acid methylamide] | 5.43
O=C(NCCO)c1ccc2c(c1)C1(CCCC1)CC(c1cc(F)ccc1Br)N2 (stereo not drawn) [Example 56, 2-(2-Bromo-5-fluoro-phenyl)-spiro(cyclopentane-1,4′-1′,2′,3′,4′-tetrahydroquinoline)-6-carboxylic acid (2-hydroxy-ethyl)-amide] | 5.47
O=C(c1ccc2c(c1)C1(CCCC1)CC(c1cc(F)ccc1Br)N2)N1CCOCC1 (stereo not drawn) [Example 57, [2-(2-Bromo-5-fluoro-phenyl)-spiro(cyclopentane-1,4′-1′,2′,3′,4′-tetrahydroquinolin)-6-yl]-morpholin-4-yl-methanone] | 5.63
CN1CCN(C(=O)c2ccc3c(c2)C2(CCCC2)CC(c2cc(F)ccc2Br)N3)CC1 (stereo not drawn) [Example 58, [2-(2-Bromo-5-fluoro-phenyl)-spiro(cyclopentane-1,4′-1′,2′,3′,4′-tetrahydroquinolin)-6-yl]-(4-methyl-piperazin-1-yl)-methanone] | 5.43
O=C(NC1COC1)c1ccc2c(c1)C1(CCCC1)CC(c1cc(F)ccc1Br)N2 (stereo not drawn) [Example 59, 2-(2-Bromo-5-fluoro-phenyl)-spiro(cyclopentane-1,4′-1′,2′,3′,4′-tetrahydroquinoline)-6-carboxylic acid oxetan-3-ylamide] | 4.95
CC(C)NC(=O)c1ccc2c(c1)C1(CCCC1)CC(c1cc(F)ccc1Br)N2 (stereo not drawn) [Example 60, 2-(2-Bromo-5-fluoro-phenyl)-spiro(cyclopentane-1,4′-1′,2′,3′,4′-tetrahydroquinoline)-6-carboxylic acid isopropylamide] | 5.36
O=C(NC1CCC1)c1ccc2c(c1)C1(CCCC1)CC(c1cc(Cl)ccc1Cl)N2 (stereo not drawn) [Example 61, 2-(2,5-Dichloro-phenyl)-spiro(cyclopentane-1,4′-1′,2′,3′,4′-tetrahydroquinoline)-6-carboxylic acid cyclobutylamide] | 5.22
O=C(NC1CCC1)c1ccc2c(c1)C1(CCCC1)CC(c1cccc(F)c1)N2 (stereo not drawn) [Example 62, 2-(3-Fluoro-phenyl)-spiro(cyclopentane-1,4′-1′,2′,3′,4′-tetrahydroquinoline)-6-carboxylic acid cyclobutylamide] | 5.80
CNC(=O)c1ccc2c(c1)C1(CCCC1)CC(c1cccc(N3CCOCC3)c1)N2 (stereo not drawn) [Example 63, 2-(3-Morpholin-4-yl-phenyl)-spiro(cyclopentane-1,4′-1′,2′,3′,4′-tetrahydroquinoline)-6-carboxylic acid methylamide] | 5.63
O=C(NC1CCC1)c1ccc2c(c1)C1(CCCC1)CC(c1cc(Cl)ccc1F)N2 (stereo not drawn) [Example 64, 2-(5-Chloro-2-fluoro-phenyl)-spiro(cyclopentane-1,4′-1′,2′,3′,4′-tetrahydroquinoline)-6-carboxylic acid cyclobutylamide] | 5.11
CC1(C)CC(c2cc(Cl)ccc2Cl)Nc2ccc(C(=O)NC3CCC3)cc21 (stereo not drawn) [Example 66, 2-(2,5-Dichloro-phenyl)-4,4-dimethyl-1,2,3,4-tetrahydro-quinoline-6-carboxylic acid cyclobutylamide] | 5.26
